This note sets out measurements from the Deep4Chem optical property database.

“And” between values parts separate entries of the source, which are not always exact repeats. Equal values may be shown once.

The series can be described thus: solvent given as SMILES.

Take `CC(C)[Si]1(C(C)C)c2cc(C#N)ccc2-c2ccc(N(C)C)cc21`: the absorption maximum is, setting by setting: (in C1CCCCC1) 357 nm; (in CC#N) 360 nm; (in CCO) 360 nm; (in CCOCC) 358 nm; (in CS(C)=O) 375 nm; (in ClCCl) 368 nm. Moreover, the absorption maximum (in c1ccccc1) was determined as 360 nm.
On to `CCCCCCCCCCCCNc1cccc2[n+]1[B-](F)(F)n1c(c3cccc4cccc1c43)=N2`, for which the absorption maximum is, setting by setting: (in C1CCOC1) 498 nm; (in CC#N) 493 nm; (in CCCCCC) 496 nm; (in Cc1ccccc1) 500 nm; (in ClCCl) 497 nm and 467 nm.
For the molecule `CCN(CC)c1ccc2cc(C#N)c(=O)oc2c1`, for the setting “in ClCCl”, the absorption maximum is given as 428 nm.
Regarding `O=C(O)CCCCCn1c2ccccc2c(=O)c2cc(S(=O)(=O)O)ccc21`, the absorption maximum (in O) was 409 nm.
As for `CCCCn1/c(=C/C=C/C2=[N+](C)c3ccccc3C2(C)C)c2cccc3cccc1c32`, the absorption maximum (in CS(C)=O) is reported as 672 nm.
As to `CC1CC(C)(C)N(C)c2ccc(/C=C/c3ccc(/C=C(\C#N)C(=O)O)s3)cc21` (stereo unspecified), the absorption maximum (in ClCCl) was found to be 525 nm.
For the molecule `O=C1[C@@H]2[C@H](C(=O)N1c1cccc3cc4ccccc4cc13)[C@@H]1C=C[C@H]2C1`, the absorption maximum (in ClC(Cl)Cl) was determined as 384 nm.
For the molecule `N#Cc1ccc(-n2cccc2)cc1`, the absorption maximum turned out to be 287 nm (in C1CCOC1); 287 nm (in CC#N); 287 nm (in CCCCCC); 287 nm (in CCOCC); 287 nm (in ClCCl).
Take `CCN(CC)c1ccc2cc(/C=C/C3=CC(/C=C/c4cc5ccc(N(CC)CC)cc5oc4=O)=[O+][B-](F)(F)O3)c(=O)oc2c1`: the absorption maximum reads like this: (in CC#N) 630 nm; (in CC(C)=O) 620 nm; (in CCOC(C)=O) 604 nm; (in CN(C)C=O) 641 nm; (in CS(C)=O) 652 nm; (in Cc1ccccc1) 598 nm. Moreover, the absorption maximum reads like this: (in ClC(Cl)Cl) 615 nm; (in ClCCl) 625 nm.
With `CCC1(CC)c2cc(C=C(C#N)C#N)ccc2-c2ccc(N(C)C)cc21`, the absorption maximum by setting is: (in C1CCCCC1) 480 nm; (in CC#N) 474 nm; (in CCO) 478 nm; (in CCOCC) 470 nm; (in CS(C)=O) 490 nm; (in ClCCl) 490 nm. For the same molecule, the absorption maximum (in c1ccccc1) amounted to 480 nm.
As to `O=C(O)c1ccc(C(=O)O)c2cc3ccccc3cc12`, the absorption maximum by setting is: (in C1CCOC1) 396 nm; (in CN(C)C=O) 390 nm.
Regarding `CCCCCCCCCCCCCCCCOc1cc(C#Cc2ccc3ccccc3c2-c2c(C#Cc3cc(OCCCCCCCCCCCCCCCC)c(C#Cc4ccc(C=C(C#N)C#N)cc4)cc3OCCCCCCCCCCCCCCCC)ccc3ccccc23)c(OCCCCCCCCCCCCCCCC)cc1C#Cc1ccc(C=C(C#N)C#N)cc1`, the absorption maximum was determined as 442 nm (in Brc1ccccc1); 444 nm (in C1CCCCC1); 425 nm (in C1CCOC1); 425 nm (in C1COCCO1); 442 nm (in CCCCCC); 431 nm (in CCCCCCCCO). The absorption maximum (in CCCCOCCCC) came to 435 nm; the absorption maximum (in CCOC(C)=O) came out at 426 nm; the absorption maximum (in CCOCC) is 429 nm; the absorption maximum (in Cc1ccccc1) is recorded as 436 nm; the absorption maximum (in ClC(Cl)(Cl)Cl) stood at 447 nm; the absorption maximum (in ClC(Cl)Cl) came out at 446 nm. This molecule had an absorption maximum (in ClCCl) of 436 nm.
As for `COCCC1=Cc2nc1ccc1[nH]c(cc1CCOC)c1nc(ccc3[nH]c2cc3CCO)C(CCOC)=C1`, the absorption maximum (in Cc1ccccc1) was 637 nm.
With `CCN(CC)c1ccc2c(c1)oc(=O)c1c(=O)oc3c(OC)cccc3c12`, the absorption maximum is, setting by setting: (in CS(C)=O) 462 nm; (in ClCCl) 458 nm.
Take `CC(C)(C)c1ccc2c(c1)c1cc(C(C)(C)C)ccc1n2-c1cc(C(=O)c2ccncc2)cc(-n2c3ccc(C(C)(C)C)cc3c3cc(C(C)(C)C)ccc32)c1`: the absorption maximum (in Cc1ccccc1) turned out to be 396 nm.
Consider `c1ccc(-c2nc(-c3ccccc3)nc(-c3cc(-n4c5ccccc5c5ncccc54)c(-n4c5ccccc5c5ccccc54)c(-n4c5ccccc5c5ncccc54)c3)n2)cc1`, for which the absorption maximum (in Cc1ccccc1) worked out at 376.56 nm.
Consider `CCCCC1=Cc2c3ccc4cccc5ccc(c6cc(-c7ccc(N(c8ccccc8)c8ccccc8)cc7)n(c26)P1(=O)c1ccccc1)c3c45` (stereo unspecified), for which the absorption maximum is on record as 431 nm (in C1CCCCC1); 432 nm (in C1CCOC1); 432 nm (in C1COCCO1); 428 nm (in CC#N); 429 nm (in CC(C)=O); 428 nm (in CO). Besides, the absorption maximum runs as follows: (in Cc1ccccc1) 434 nm; (in ClC(Cl)Cl) 433 nm; (in ClCCl) 431 nm.
Take `N#Cc1ccc(-n2c(-c3ccc(-c4ccc(-c5nc6c7ccccc7c7ccccc7c6n5-c5ccc(C#N)c6ccccc56)cc4)cc3)nc3c4ccccc4c4ccccc4c32)c2ccccc12`: the absorption maximum (in ClCCl) amounted to 340 nm.
Molecule `c1ccc(-c2nc(-c3ccccc3)nc(-c3ccc(N4c5ccccc5C5(c6ccccc64)c4ccccc4N(c4ccc(-c6nc(-c7ccccc7)nc(-c7ccccc7)n6)cc4)c4ccccc45)cc3)n2)cc1` came in with an absorption maximum (in Cc1ccccc1) of 400 nm.
Consider `CCCN1C(=O)c2c3c(c4c(c2C1=O)CCc1cc(-c2ccc(N(C)C)cc2)c(OC)cc1-4)-c1cc(OC)c(-c2ccc(N(C)C)cc2)cc1CC3`, for which the absorption maximum runs as follows: (in C1CCCCC1) 404 nm; (in C1CCOC1) 409 nm; (in CCOC(C)=O) 407 nm; (in Cc1ccccc1) 412 nm.
The molecule `CCCCN(CCCC)c1ccc(C#Cc2cc(C#Cc3ccc(C(F)(F)F)cc3)c(C#Cc3ccc(C(F)(F)F)cc3)cc2C#Cc2ccc(N(CCCC)CCCC)cc2)cc1` yielded an absorption maximum (in ClCCl) of 407 nm.
For `O=C1c2ccccc2-c2c(-c3ccc([N+](=O)[O-])cc3)c(-c3ccc([N+](=O)[O-])cc3)c(-c3ccccc3)c3cccc1c23`, the absorption maximum by setting is: (in CC#N) 396 nm; (in CO) 400 nm.
Molecule `CCCCCCOc1cc(/C=C2\C(=O)c3ccccc3C2=C(C#N)C#N)c(OCCCCCC)cc1/C=C1\C(=O)c2ccccc2C1=C(C#N)C#N` registered an absorption maximum (in ClCCl) of 548 nm.
For the setting “in ClCCl”, `COC(=O)c1[nH]c(-c2ccc(Br)cc2)c2nnc3ccc(OC)cc3c12` returned an absorption maximum of 395 nm.
For the setting “in ClCCl”, `Clc1ccc(N2c3c(sc4ccccc34)Sc3sc4ccccc4c32)cc1` displayed an absorption maximum of 309 nm.
`COc1ccc(/C=C/C2=[O+][B-](F)(F)OC(/C=C/c3ccc(OC)cc3)=C2c2ccc(OC)cc2)cc1` displayed an absorption maximum (in ClCCl) of 506 nm.
For the molecule `Cc1cccc2cc3c(=O)n(C)c(=O)n(C)c3nc12`, the absorption maximum was 359 nm (in CC#N); 360 nm (in CC(C)O); 359 nm (in CCO); 361 nm (in CO); 362 nm (in ClC(Cl)Cl); 362 nm (in ClCCl).
In turn, `COC(=O)c1nc2c(N)nc(N(C)C)nc2n1Cc1ccccc1` came in with an absorption maximum (in C1COCCO1) of 340 nm, an absorption maximum (in CC#N) of 342 nm, an absorption maximum (in CO) of 345 nm and an absorption maximum (in ClCCl) of 338 nm.
Regarding `c1ccc2c3c(ccc2c1)-c1cccc2cc4ccccc4c-3c12`, the absorption maximum (in CCCCCCC) stood at 446 nm.
Molecule `CCCCCOc1cc2oc(=O)c3c4occc4c4ccc5cccc6c(c1)c2c3c4c56` came in with an absorption maximum (in C1CCOC1) of 422 nm.
On to `[C-]#[N+]c1ccc(-c2ccc(N(C)C)cc2)cc1`, for which the absorption maximum reads like this: (in C1CCCCC1) 325 nm; (in C1CCOC1) 334 nm; (in C1COCCO1) 330 nm; (in CC#N) 333 nm; (in CC(C)=O) 327 nm; (in CCCCCC) 323 nm. The absorption maximum runs as follows: (in CCOC(C)=O) 330 nm; (in CN(C)C=O) 339 nm; (in CO) 333 nm; (in CS(C)=O) 340 nm; (in Cc1ccccc1) 329 nm; (in ClC(Cl)Cl) 331 nm. In addition, the absorption maximum (in ClCCl) was 336 nm, the absorption maximum (in O) turned out to be 315 nm and the absorption maximum (in c1ccncc1) was found to be 340 nm.
`Cc1ccc(-n2c3ccccc3c3cc(-c4ccc5[n+](c4)[B-](F)(F)n4c-5nc5c6ccccc6c6ccccc6c54)ccc32)cc1`: the absorption maximum (in ClC(Cl)Cl) stood at 444 nm.
Take `Cc1ccc(O)c(-c2[nH]c(=O)n3c2-c2ccccc2C3=O)c1`: the absorption maximum runs as follows: (in CC#N) 394 nm; (in CO) 399 nm; (in ClCCl) 393 nm.
As for `CC1(C)c2ccccc2N(c2ccc3c(c2)c2cc(N4c5ccccc5C(C)(C)c5ccccc54)ccc2c2nc4ccccc4nc32)c2ccccc21`, the absorption maximum (in Cc1ccccc1) was found to be 380 nm.
Turning to `O=C(c1cc(F)c(N2CCOCC2)cc1F)c1cc(F)c(N2CCOCC2)cc1F`, the absorption maximum (in CCO) is recorded as 342 nm.
`CC(C)[Si](C#Cc1c2ccccc2c(C#C[Si](C(C)C)(C(C)C)C(C)C)c2nc3c(ccc4cc5ccccc5cc43)nc12)(C(C)C)C(C)C` came in with an absorption maximum (in CCCCCC) of 536 nm.
Under “in C1CCOC1”, `CC(C)(C)c1ccc(C2=C(c3ccc(N(c4ccccc4)c4ccccc4)cc3)S(=O)(=O)c3c2sc(-c2ccc(N(c4ccccc4)c4ccccc4)cc2)c3-c2ccc(C(C)(C)C)cc2)cc1` displayed an absorption maximum of 463 nm.
`c1ccc2c3c(ccc2c1)C1(c2cc(-c4ccc5ccc6cccc7ccc4c5c67)ccc2-c2ccc(-c4ccc5ccc6cccc7ccc4c5c67)cc21)c1ccc2ccccc2c1O3` showed an absorption maximum (in ClC(Cl)Cl) of 365 nm.
Take `Cc1cccc2c3ccccc3n(-c3ccc(-c4c(-c5ccccc5)c(C#N)c(C#N)c(-c5ccccc5)c4-c4ccc(-n5c6ccccc6c6cccc(C)c65)cc4)cc3)c12`: the absorption maximum (in Cc1ccccc1) was determined as 339 nm.
